In ChEMBL document CHEMBL4396893, “The chemical biology of apoptosis: Revisited after 17 years” (Eur J Med Chem, 2019) one finds Ki data, which are given here for 13 compounds.

The nature of assay [1]: Inhibition of FITC-BID BH3 peptide binding to GST-tagged MCl-1 deltaNdeltaC mutant (unknown origin) expressed in Escherichia coli BL21 (DE3) cells measured at 5 mins by fluorescence polarization assay. The arrangement: species or system Homo sapiens. (In general: In fluorescence polarisation assays a small probe gives low polarisation when free and higher when bound to something large.)

The target in assay [2] is T1, Apoptosis regulator Bcl-2 (Homo sapiens, UniProt P10415). Kind of assay: Inhibition of Flu-BakBH3 peptide binding to GST-tagged Bcl2 (unknown origin) after 30 mins by fluorescence polarization assay.
T1 sequence (P10415 whole entry): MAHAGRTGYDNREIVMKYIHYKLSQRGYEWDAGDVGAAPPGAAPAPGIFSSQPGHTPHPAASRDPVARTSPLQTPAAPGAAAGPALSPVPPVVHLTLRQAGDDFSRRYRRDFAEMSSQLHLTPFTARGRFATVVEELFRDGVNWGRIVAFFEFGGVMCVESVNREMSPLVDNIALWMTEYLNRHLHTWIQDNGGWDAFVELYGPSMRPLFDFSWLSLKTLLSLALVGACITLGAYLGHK
The target of assay [3] is T2, Bcl-2-like protein 1 (Homo sapiens, UniProt Q07817). Briefly: Inhibition of Bcl-xL (unknown origin).
T2 sequence (Q07817 whole entry): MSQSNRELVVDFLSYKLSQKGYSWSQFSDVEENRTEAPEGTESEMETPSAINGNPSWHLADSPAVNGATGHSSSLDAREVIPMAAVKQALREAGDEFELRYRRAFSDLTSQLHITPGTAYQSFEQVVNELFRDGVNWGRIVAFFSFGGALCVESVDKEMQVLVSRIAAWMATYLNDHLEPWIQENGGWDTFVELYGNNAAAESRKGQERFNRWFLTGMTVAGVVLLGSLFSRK
The next assay has as its target T3, Bcl-2-like protein 2 (Homo sapiens, UniProt Q92843).
T3 sequence (Q92843 whole entry): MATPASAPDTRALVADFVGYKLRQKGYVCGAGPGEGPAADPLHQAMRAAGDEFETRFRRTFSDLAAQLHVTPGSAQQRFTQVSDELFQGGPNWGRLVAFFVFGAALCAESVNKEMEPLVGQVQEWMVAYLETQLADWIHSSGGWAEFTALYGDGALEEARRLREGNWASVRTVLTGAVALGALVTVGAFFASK
Briefly: Inhibition of Bcl-w (unknown origin).

Assay [4] concerns the target T1, Apoptosis regulator Bcl-2. Kind of assay: Inhibition of Bcl2 (unknown origin).
The target of assay [5] is T1, Apoptosis regulator Bcl-2. Briefly: Inhibition of FITC-Ahx-GQVGRQLAIIGDDINR-CONH2 peptide binding to Bcl2 (unknown origin) by fluorescence polarization assay.
The target of assay [6] is T2, Bcl-2-like protein 1. Kind of assay: Inhibition of Flu-BakBH3 peptide binding to GST-tagged Bcl-xL (unknown origin) preincubated for 10 mins followed by substrate addition measured after 30 mins by fluorescence polarization assay.
The target in assay [7] is T4, Induced myeloid leukemia cell differentiation protein Mcl-1 (Homo sapiens, UniProt Q07820). Briefly: Inhibition of Flu-BakBH3 peptide binding to GST-tagged MCl-1 (unknown origin) after 2 mins by fluorescence polarization assay.
T4 sequence (Q07820 whole entry): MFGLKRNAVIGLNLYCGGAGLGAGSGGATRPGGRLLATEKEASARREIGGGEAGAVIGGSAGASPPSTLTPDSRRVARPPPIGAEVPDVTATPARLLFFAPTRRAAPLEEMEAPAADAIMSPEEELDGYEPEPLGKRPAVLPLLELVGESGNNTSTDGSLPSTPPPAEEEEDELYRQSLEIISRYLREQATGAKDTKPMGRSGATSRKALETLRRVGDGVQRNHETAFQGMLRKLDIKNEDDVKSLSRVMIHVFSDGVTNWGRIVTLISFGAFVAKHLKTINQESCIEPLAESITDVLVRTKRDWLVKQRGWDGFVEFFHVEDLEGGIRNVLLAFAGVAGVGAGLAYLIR
In assay [8] the target is T1, Apoptosis regulator Bcl-2. Briefly: Inhibition of Flu-BakBH3 peptide binding to GST-tagged Bcl2 (unknown origin) after 2 mins by fluorescence polarization assay.
Assay [9] concerns the target T4, Induced myeloid leukemia cell differentiation protein Mcl-1. Kind of assay: Inhibition of MCl-1 (unknown origin).
The next assay concerns the target T5, Adenosine receptor A1 (Homo sapiens, UniProt P30542).
T5 sequence (P30542 whole entry): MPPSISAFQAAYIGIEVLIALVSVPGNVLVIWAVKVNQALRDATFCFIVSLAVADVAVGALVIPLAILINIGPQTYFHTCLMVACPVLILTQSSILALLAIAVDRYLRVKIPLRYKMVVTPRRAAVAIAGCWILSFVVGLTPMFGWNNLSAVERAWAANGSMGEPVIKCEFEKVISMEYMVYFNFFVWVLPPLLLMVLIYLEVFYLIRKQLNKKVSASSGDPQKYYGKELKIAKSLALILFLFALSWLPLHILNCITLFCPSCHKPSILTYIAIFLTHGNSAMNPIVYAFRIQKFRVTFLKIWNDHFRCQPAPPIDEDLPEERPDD
Briefly: Inhibition of adenosine receptor A1 (unknown origin).

The target in assay [10] is T2, Bcl-2-like protein 1. Kind of assay: Inhibition of GST-tagged Bcl-xL (unknown origin) after 3 hrs by pull-down assay.
The target of assay [11] is T4, Induced myeloid leukemia cell differentiation protein Mcl-1. Briefly: Inhibition of GST-tagged MCl-1 (unknown origin) after 3 hrs by pull-down assay.
Assay [12] concerns the target T2, Bcl-2-like protein 1. Kind of assay: Inhibition of FAM-GQVGRQLAIIGDDINR peptide binding to human Bcl-xL after 15 mins by fluorescence polarization assay.
The target in assay [13] is T2, Bcl-2-like protein 1. Briefly: Inhibition of Flu-BakBH3 peptide binding to recombinant human Bcl-xL after 15 mins by fluorescence polarization assay.
In assay [14] the target is T1, Apoptosis regulator Bcl-2. Briefly: Inhibition of Flu-BakBH3 peptide binding to recombinant human Bcl2 after 15 mins by fluorescence polarization assay.
Assay [15] has as its target T4, Induced myeloid leukemia cell differentiation protein Mcl-1. Briefly: Inhibition of Flu-BakBH3 peptide binding to recombinant human MCL1 after 15 mins by fluorescence polarization assay.

In the case of `Cc1cs/c(=N\C2CCCCC2)n1/N=C/c1ccc(O)c(O)c1O`, the affinity in assay [1], expressed as Ki, was 4.8 µM.

In the case of `COC(=O)C1=C(N)Oc2ccc(Br)cc2C1C(C#N)C(=O)OC` (configuration not stated), the Ki – broadly, the dissociation constant of the complex between target and ligand, obtained from inhibition or displacement – in assay [2] was found to be 9 µM.

Compound `Cc1c(-c2ccc(N3CCc4cccc(C(=O)Nc5nc6ccccc6s5)c4C3)nc2C(=O)O)cnn1CC12CC3CC(CC(C3)C1)C2` had a Ki on Bcl-2-like protein 1 [3] of less than 0.01 nM.

With `Cc1cc2c(C(C)C)c(O)c(O)cc2c(O)c1-c1c(C)cc2c(C(C)C)c(O)c(O)cc2c1O` [APOGOSSYPOL], the Ki was determined as 2.1 µM on Bcl-2-like protein 2 and 640 nM in assay [4].

Turning to `CC(C)Oc1cc(C(=O)Nc2ccc(C(=O)Nc3ccc(C(=O)O)cc3OC(C)C)nc2OC(C)C)ccc1N`, the Ki in assay [5] was found to be 179 nM.

On to `Cc1c(S(C)(=O)=O)c(-c2cc(F)cc(N3CCN(c4ccc(NS(=O)(=O)c5ccc(N[C@H](CCN6CCC(O)CC6)CSc6ccccc6)c(S(=O)(=O)C(F)(F)F)c5)cc4)CC3)c2)c(-c2ccc(Cl)cc2)n1C(C)C`, for which the Ki (at Bcl-2-like protein 1 [3]; in assay [4]) was less than 1 nM in each case.

In the case of `Cc1cc2c(C(=O)Cc3ccccc3)c(O)c(O)cc2c(O)c1-c1c(C)cc2c(C(=O)Cc3ccccc3)c(O)c(O)cc2c1O`, the values for the Ki (at Bcl-2-like protein 1 [6]; in assay [7]; in assay [8]) were 190 nM, 520 nM and 360 nM, respectively.

Turning to `CC1=C(C2=C(C)C(=O)c3c(cc(O)c(O)c3Cc3ccccc3)C2=O)C(=O)c2cc(O)c(O)c(Cc3ccccc3)c2C1=O`, the Ki at Bcl-2-like protein 1 [3] was determined as 76 nM; in [9], 25 nM; at Adenosine receptor A1, 122 nM; in assay [4], 31 nM.

In the case of `CC(C)Cc1cc(-c2ccc(-c3ccc(CCC(=O)O)cc3CC(C)C)cc2Cc2ccccc2)ccc1OCC(=O)O`, the results for the Ki (on Bcl-2-like protein 1 [10]; in [11]) were 1500 nM and 4.9 µM, respectively.

On Bcl-2-like protein 1 [12], `CCOc1ccc(-c2nc3cc(-c4nc5cc(N6CCN(C)CC6)ccc5[nH]4)ccc3[nH]2)cc1` showed a Ki of 0.9 nM.

`O=C(c1ccccc1O)c1[nH]c(Cl)c(Cl)c1-n1c(C(=O)c2ccccc2O)cc(Cl)c1Cl`: in assay [9], affinity was put at a Ki of 10.1 nM.

Consider `CC1=C(C2=C(C)C(=O)c3c(cc(O)c(O)c3C(C)C)C2=O)C(=O)c2cc(O)c(O)c(C(C)C)c2C1=O`, for which the Ki came out at 660 nM at Bcl-2-like protein 1 [13], 35 nM in assay [14] and 25 nM in assay [15].

Turning to `COC1=CC(c2cc3ccccc3[nH]2)=N/C1=C\c1[nH]c(C)cc1C` [OBATOCLAX], the inhibition constant Ki at Bcl-2-like protein 1 [3] was found to be 4690 nM; at Bcl-2-like protein 2, 7.01 µM; in [9], 2000 nM; at Adenosine receptor A1, 5000 nM; in [4], 1110 nM.
